Assay: Franz diffusion cell permeability of GI tissue exposed to ultrasound, scintigraphy of tissue and receiver chamber
Settings: 1-MHz, 1.4 W/cm^2; 5 min ultrasound + 55 min passive diffusion vs 30 min + 30 min

For inulin, the “transport into or across the tissue, effect of irradiation profile” value was “the longer irradiation time was more effective”.
